Measurements as given in patent publication US20110152379A1, “COMPOSITION FOR CONTROL OF AGING AND/OR EXTENSION OF LIFE, CONTAINING DAPSONE AS ACTIVE INGREDIENT” (priority 2008, published 2011).

Key:
[1] = system: mitochondria complex; assay: Mitochondria complex protein amount by Western blot in PQ-treated human diploid fibroblast; type: cell-based; details: 1 mM PQ 24 hours, FIG. 29A
Experimental: (§1) The protein amount of mitochondria constituent complex was measured by using Western Blot using Complex I (20 kDa ND6 subunit), Complex II (30 kDa FeS, non-heme iron protein, SDHB), Complex III (47 kDa core protein 2), Complex IV (18 kDa subunit IV), Complex V (55 kDa subunit a ATP synthase), and the like. […] The membrane potential (Δψm) of mitochondria used DiOC6. […] Since then, the above fibroblast was treated with 40 nM of DiOC6 for 15 minutes. The results were measured by using Cary Eclipse Fluorescence Spectrophotometer (Varian, Calif., USA) and the excitation wavelength and emission wavelength were measured at 480 nm and 520 nm, respectively.
The isolated sample was transferred to a nitrocellulose and analyzed through Western Blot using MS601 (Total OXPHOS Complexes Detection Kit, MitoSciences, containing antibodies against SDH30 subunit of complex II (5 μg/ml), Core2 subunit of complex III (0.2 μg/ml), COXII subunit of complex IV (2 μg/ml), and subunit α of F1-ATPase of complex V (0.2 μg/ml)), PCKpan-p, PCKα/β-p, PKCδ-p (Phospho-PKC antibody Sampler Kit, Cell Signaling Technology), PKC α, PCKβ, PKCδ (Life Technologies), β-Actin (Sigma), and the like. […] The results were shown through visualizing by using Autoradiographic film (Image Reader, LAS-3000Fujifilm, Japan).

[2] = system: C. elegans; assay: Vitality (movements) of worms at 23 days; type: in vivo; details: 23 days after adult; FIG. 4
Source text: At this time, the arrows indicate the initial positions of worms.

[3] = system: ceDuox1; assay: RT-PCR of ceDuox1 mRNA in worms; type: in vivo, C. elegans; details: worms treated with DDS; FIG. 13
Experimental: Total RNA was isolated by using TRI reagent available from MRC Company and first cDNA strain was synthesized by using Oligo-dT and Superscript II Reverse Transcriptase (available from Invitrogen Company). The gene amplification (PCR) was performed by using PCR Master Mix (Genenmed) and as the base sequence of the primer, ceDuox1; 5′-[…]-3′ (Forward Primer) and 5′-[…]-3′ (Reverse Primer), actin 5′-[…]-3′ (Forward Primer) and 5′-[…]-3′ (Reverse Primer) were used.

[4] = system: calcium; assay: Calcium amount in a cell, Fluo-4; type: cell-based; details: human diploid fibroblast, 1 mM PQ, FIG. 27
Experimental: HDF cell was cultured at 96-well plate and the calcium in cell was measured by using Fluo-4AM. […] The amount of Calcium in a cell was measured by using Fluo-4 (5 uM) that is a fluorescent material for labeling calcium and is well passed through a cell. The cell was cultured at 37° C. for 30 minutes and then maintained at a room temperature for 30 minutes without light in order for a complete de-esterification of AM ester in a cell: The fluorescent material that was left was removed except a cell by using HBSS containing 20 mM of HEPES (pH 7.4), and 100 ul of HBSS was added into wells containing cells, respectively. The fluorescent signal was measured at 494 nm for the excitation wavelength and 516 nm for the emission wavelength by using the multi-well fluorescence plate Eclipse fluorescence spectrophotometer (Varian, Calif., USA). The result was shown as Relative fluorescence units (RFUs).

[5] = system: mitochondria superoxide anion; assay: Superoxide anion in mitochondria, MitoSOX Red; type: cell-based; details: human diploid fibroblast; 1 mM PQ 30 minutes; FIG. 24B
Experimental: (§2) The cell was treated with 1 mM of PQ for 30 minutes, and then was cultured at 37° C. for 15 minutes after adding oxidant-sensitive fluorescent dyes (A) DHE (5 uM, cytosol specific) and (B) MitoSOX (5 uM, mitochondria specific), respectively. For identifying the change of fluorescence, the excitation and emission wavelength of DHE were measured at 515 and 590 nm and MitoSOX was measured at 520 and 580 nm by using a multiwell plate reader. The results were indicated by calculating the results of three experiments as a control rate (%). The statistical significant was expressed as *, # p<0.005; ** p<0.05.
Mitochondria superoxide anion was measured by using the fluorescence material, i.e., MitoSOX Red. […] The cell was twice washed with DPBS and the fluorescence was immediately measured at excitation wavelength 515 nm and emission wavelength 590 nm by using CEFS [Cary Eclipse fluorescence spectrophotometer (Varian, Calif., USA)] machine.

[6] = system: membrane potential of mitochondria; assay: Membrane potential of mitochondria, DiOC6 assay; type: cell-based, human; details: pretreated with DDS (3 hours) or DPI (30 minutes), then 1 mM PQ 24 hours; FIG. 29B
Experimental: as §1
The change of membrane potential (Δψm) of mitochondria was measured by using a cationic dye, DiOC6 that is a specific fluorescent material for mitochondria. An aspect of the change was measured by using Fluorescence Spectrophotometer. The cell was cultured in 40 nM DiQC6 for 15 minutes and then the fluorescent material that was left was removed by using PBS. The analysis was performed by using Cary Eclipse fluorescence spectrophotometer (Varian, Calif., USA), and then the excitation wavelength was measured at 480 nm, and the emission wavelength was measured at 520 nm.

[7] = system: cytosolic superoxide anion; assay: Superoxide anion in cell (cytoplasm), DHE; type: cell-based; details: human diploid fibroblast; 1 mM PQ 30 minutes; FIG. 24A
Experimental: as §2
The cell was twice washed with DPBS and Ethidium-DNA that fluoresces was immediately measured at excitation wavelength 515 nm and emission wavelength 590 nm by using Cary Eclipse fluorescence spectrophotometer (Varian, Calif., USA) machine.

Nc1ccc(S(=O)(=O)c2ccc(N)cc2)cc1 [DDS, 4,4′-diaminodiphenylsulfone]
amount of mitochondria complex reduced by PQ [1]: recover | movement of worms [2]: more strong active movement | amounts of mRNA of C. elegans NOX, ceDuox [3]: significantly decreased | amount of calcium increased by PQ [4]: decreases | production of superoxide anion in the mitochondria [5]: suppresses | decrease of membrane potential induced by PQ [6]: meaningfully maintained | superoxide anion of cytoplasm produced by PQ (DHE assay) [7]: reduced depending upon the concentration of DDS
